Source: patent publication US20170166558A1, “O-GLCNAC TRANSFERASE (OGT) INHIBITORS AND USES THEREOF” (President and Fellows of Harvard College, priority 2014, published 2017)

Assays:
OGT in CHO cells [1] = assay: Immunoblotting of global O-GlcNAcylation (RL2) in CHO cells; format: cell-based, Chinese hamster
Protocol: (§1) In vivo inhibition of glycosylation: For all immunoblotting experiments, CHO-K1 (CHO) cells were grown in F12-K media supplemented with 10% FBS and antibiotics at 37° C. in a 5% CO2 incubator. Cells were treated by adding indicated inhibitor in DMSO vehicle (0.5% final vehicle concentration) upon reaching 70% confluence. After indicated treatment length, cells were harvested by aspirating growth media and washing with ice cold 1× PBS. Cells were subsequently lysed in boiling 1% SDS/20 mM HEPES 7.9. After cooling to room temperature, 1 mM PMSF, 10 μM PUGNAC, 10 μM TMG and 1× Complete protease inhibitor cocktail were added to the solution. The mixture was sonicated and then subjected to a 5 minute incubation at 95° C. The samples were centrifuged for 15 minutes at 20,000×g and the supernatant was collected and the total protein was measured by BCA assay (BIO-RAD).
(§2) The sample was separated by SDS-PAGE (Bio-Rad 4-15%, Cat: 345-0028), transferred to a nitrocellulose membrane (iBlot, Invitrogen) and probed with the indicated antibody. Tyipcally, membranes were blocked with 4% BSA in 1× TBS+0.04% tween-20 for 1 hour before incubating with antibody (typically diluted 1:1000 in 4% BSA inlx TBS+0.04% tween-20) overnight at 4° C. Membranes were then washed three times with 1× TBS+0.04% tween-20 and incubated with secondary antibody (typically diluted 1:5000 in 4% BSA in 1× TBS+0.04% tween-20) for 1 hour at room temperature. Lastly, membranes were washed 3× with 1× TBS+0.04% tween-20 and imaged with ECL. D283-Med cells were treated as above but grown in F12-K media supplemented with 10% FBS and antibiotics. HEK, HeLa and LNCaP cells were treated as above but grown in RPMI media supplemented with 10% FBS and antibiotics.

OGT in CHO cells [2] = assay: Markers of OGT inhibition in CHO cells (Nup62 mass shift, OGA levels, H2B-S112 O-GlcNAc); format: cell-based, Chinese hamster
Protocol: as §1, §2

[3] = test system: cell surface glycans of CHO cells; assay: Lectin blots of cell surface glycans of CHO cells; format: cell-based, Chinese hamster; settings: 50 μM, 24 hours
Protocol: Lectin blots were performed with the CHO-K1 cell lysate as prepared above. […] The biotin label on the lectins was visualized with incubation with Streptavidin-HRP (Pierce) followed by ECL detection and imaging.

[4] = test system: CHO, HEK-293, HeLa and D283-Med cells; assay: Immunoblotting of global O-GlcNAcylation in various mammalian cell types; format: cell-based; settings: 50 μM, 24 hours
Protocol: as §1
The sample was separated by SDS-PAGE (Bio-Rad 4-15%, Cat: 345-0028), transferred to a nitrocellulose membrane (iBlot, Invitrogen) and probed with the indicated antibody. Tyipcally, membranes were blocked with 4% BSA in 1× TBS+0.04% tween-20 for 1 hour before incubating with antibody (typically diluted 1:1000 in 4% BSA inlx TBS+0.04% tween-20) overnight at 4° C. […]

CC(=O)N[C@@H]1[C@@H](OC(C)=O)[C@H](OC(C)=O)[C@@H](COC(C)=O)S[C@@H]1OC(C)=O [Ac4-5SGlcNAc, reference compound]
Onset of reduction of global O-GlcNAcylation (OGT in CHO cells [1]; 50 μM, 8-hour time course): only at four hours
Effect on global O-GlcNAcylation (OGT in CHO cells [1]; 24 hours, up to 50 μM): reduced global O-GlcNAcylation to a greater extent than OSMI-1
Cellular OGA levels (OGT in CHO cells [2]): reduced cellular OGA
Changes in bands detected by ConA, PHA-L, ECL, GSL-I, PNA or DBA [3]: minimal changes
Changes in glycans detected by Jacalin, PHA-E and LCA [3]: dramatic changes
Global O-GlcNAc levels in four cell lines [4]: reduce global O-GlcNAc levels in all four lines examined
